Results taken from patent US20160235806A1, “Novel Peptide Compound for Inhibiting Restenosis and Promoting Re-Endothelialization and Method for Preparing the Same” (Chonnam National University Hospital, priority 2014, published 2016).

System: vascular smooth muscle cell (SMC)
Experiment: Effect on proliferation of vascular smooth muscle cell (SMC), XTT assay
Assay type: cell-based
Conditions: 1 uM; 1, 4, and 7 days; vs non-treated control that continuously grew until 7 days
Protocol: As cells used in a cell culture, the vascular smooth muscle cell (SMC) which is a smooth muscle cell, and the human umbilical vein endothelial cell (HUVEC) which is the cell for promoting vascular re-endothelialization were purchased from Korea Cell Line Bank, respectively. The cell culture was performed by culturing the vascular smooth muscle cell (SMC) and the human umbilical vein endothelial cell (HUVEC) in Dulbecoco's modified eagle medium (DMEM) with 10% fetal bovine serum (FBS) under conditions of 37° C. and 5% CO2. […]
(§1) 5×10^4 of SMC cells cultured according to Example 2 were cultured in the 24-well cell culture plate and then treated with 1 uM of the peptide compound prepared by Example 2 (hereinafter, referred to as ‘EVR-P’). […] After the reaction, 200 ul of the culture medium was transferred from each well to a 96 well cell culture dish, and degree of color change was measured from absorbance at a 450 nm wavelength by a spectroscopy.
as §1, with “the known Everolimus (EVR)(LC Laboratories).” for “the peptide compound prepared by Example 2 (hereinafter, referred to as ‘EVR-P’).”, “to the” for “to a”

In the case of CO[C@H]1C[C@@H]2CC[C@@H](C)[C@@](O)(O2)C(=O)C(=O)N2CCCC[C@H]2C(=O)O[C@H]([C@H](C)C[C@@H]2CC[C@@H](OCCO)[C@H](OC)C2)CC(=O)[C@H](C)/C=C(\C)[C@@H](O)[C@@H](OC)C(=O)[C@H](C)C[C@H](C)/C=C/C=C/C=C/1C [EVR, Everolimus], the “SMC cell proliferation (XTT, absorbance at 450 nm)” value is reported as “cell proliferation was inhibited”.
